Laboratory results reported in publication PMC2930046 (Archives of biochemistry and biophysics, 2010).
Several values for one entry are separate records, joined by “and”; a condition that tells them apart may be missing. Equal values may be shown once. Peptide text beside a SMILES is read from it. * marks the point of attachment. AMC = Cc1cc(=O)oc2cc(N*)ccc12; Cbz = O=C(OCc1ccccc1)*

How the values were obtained:
Mtb proteasome = conditions: cited from earlier work
mammalian proteasome = conditions: cited from earlier work
[1] = tested on: fibroblasts and glial-derived cells; conditions: through inhibition of proteasome activity; cited from earlier work
Mtb20SOG [2] = target: T1, Mtb20SOG (Mycobacterium tuberculosis, UniProt P9WHT9); assay type: biochemical; conditions: retest of screening hits
T1 sequence (P9WHT9 58-291): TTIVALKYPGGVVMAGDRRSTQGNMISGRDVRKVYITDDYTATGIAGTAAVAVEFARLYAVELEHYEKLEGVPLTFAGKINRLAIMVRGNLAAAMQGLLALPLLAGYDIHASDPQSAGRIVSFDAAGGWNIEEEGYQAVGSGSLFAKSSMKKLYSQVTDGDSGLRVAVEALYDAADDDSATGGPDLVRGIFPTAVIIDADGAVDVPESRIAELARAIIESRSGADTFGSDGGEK

cancer cells = conditions: cited from earlier work
proteasome β5 = conditions: read-out: IC50 for β5; cited from earlier work
human 20S β5 = human 20S β5 (Homo sapiens, UniProt P28074); assay type: biochemical
Mtb20SOG [3] = target: T1, Mtb20SOG; test: Kinetics of inhibition of Mtb20SOG, progress curves of Suc-LLVY-AMC cleavage; assay type: biochemical

In the case of `CC(=O)NC(CC(N)=O)C(=O)NC(CCC(N)=O)C(=O)NC(CC(C)C)C(=O)Nc1ccc2c(C)cc(=O)oc2c1` (stereo not drawn) [Ac-NQL-AMC] (Ac-Asn-Gln-Leu-{AMC}; configuration not given here), the “hydrolysis by the Mtb proteasome” value (Mtb proteasome) is listed as “could not be hydrolyzed”.
For `CC(C)C[C@@H](C=O)NC(=O)[C@H](CC(C)C)NC(=O)[C@H](CC(C)C)NC(=O)OCc1ccccc1` [Z-Leu-Leu-Leu-Cho] (Cbz-Leu-Leu-Leu-aldehyde), the Ki (mammalian proteasome) is listed as 4 nM.
In the case of `CCCCCCCCC[C@@H](O)CC(=O)N[C@@H](CC(N)=O)C(=O)N[C@@H](CCC(N)=O)C(=O)N[C@H](C=O)CC(C)C` [compound 1, (R)-3-hydroxydodecanoyl-Asn-Gln-Leu-CHO], the “release of nerve growth factor” value [1] is listed as “induce the release of nerve growth factor”, the “inhibition of Mtb20SOG on retest with re-supplied compound” value (Mtb20SOG [2]) is listed as “dose-dependent inhibition” and the “cytotoxicity to cancer cells” value (cancer cells) is listed as “cytotoxic to cancer cells”. The IC50 (proteasome β5) was 9.6 nM, the “advantage on binding affinity of EI* over EI (ΔG = −RTlnK)” value (human 20S β5) was 1.5 kcal/mol and the k5/k6 ratio (human 20S β5) was 11. The Ki (human 20S β5; Ki, initial EI complex, corrected by equation 4, two-step mechanism) was 11.6 nM and 11.5 nM, the “distribution of enzyme into EI*” value (human 20S β5; from k5/k6 ratio) was 91% and the Ki (Mtb20SOG [3]; Ki calculated from koff/kon, koff/kon) was 7.4 nM. For the same compound, the Ki (Mtb20SOG [3]; Ki, Morrison fit of vs/vo vs [1], corrected by (1+[S]/KM), one-step slow binding) was 6.8 nM, the Ki (Mtb20SOG [3]; Kiapp, apparent, Morrison equation 3, uncorrected) was 11.1 nM and the koff (Mtb20SOG [3]; read-out: k4 (koff)) was 0.00096 s⁻¹. For the same compound, the kon (Mtb20SOG [3]; read-out: kon^app (slope of the fit, apparent)) was 79500 M⁻¹ s⁻¹.
